The test system of series [1] is NPC1 (I1061T/I1061T) mice. Nature of the series: 27-HC treatment of NPC1 (I1061T/I1061T) mice by oral gavage. In kind it is in vivo. On the procedure: FIG. 11. Impact of 27-HC Treatment on NPC1 (I1061T/I1061T) Mice. Kaplan-Meier lifespan analysis of NPC1 (I1061T/I1061T) mice treated with either 0 mg/kg (dashed line) or 5 mg/kg (solid line) 27-HC three times per week by oral gavage.
FIG. 13. Impact of 27-HC Treatment on Lipid Accumulation in Livers of Male and Female Mice. Comparing livers of wild-type vs. NPC1 (I1061T/I1061T) mice, lipid accumulations (black arrows) are apparent in NPC1 mutant mice but not wild-type mice. This is true and both males and females.
(§1) To test this idea, we treated either NPC1 mutant (null or I1061T) or StARD9 mutant (null or truncation mutant) cells with 27-HC in a cocktail that delivers it into the cytoplasm independent of receptor-mediated endocytosis. […] Next, we treated NPC1(−/−) mice with 27-HC by i.p. delivery.

The conditions of series [2]: in vivo. On the procedure: Studies have tested treatment 1× per week and 3× per week. However, from pharmacokinetic studies, it is known that 27-HC levels are only retained for 1-2 days. We will increase to daily treatment by oral gavage and measure serum levels of 27-HC to confirm maintenance of therapeutic levels. […] We will increase to higher doses by adding higher levels of DMSO to allow treatment with 20 mg/kg and 40 mg/kg.
We anticipate an increased benefit from treatment on a daily basis because the pharmacokinetics inform us about how long 27-HC remains in the blood (-100 ng/ml for 12 hours). For reference, children treated with Miglustat are dosed 3× per day. Higher doses of 27-HC and alternative cocktails are expected to reveal which parameters are more important for success. […] When crossed with NPC1(−/−) mice, they observe a significant decrease in NPC disease symptoms and an extension of lifespan (personal communication). This provides independent validation of the benefits associated with treatment with 27-HC. Finally, we expect improved outcomes for mice treated from conception over waiting until weaning (P21). This is because there is such a long window of brain development and maturation from conception to P21, that any developmental aspect of NPC disease would be well underway before we begin treatment at weaning.

A further series deals with NPC mutant mice. The series can be described thus: Therapeutic administration of 27-HC in two transgenic strains of mice with NPC1 mutations (summary). The series is classed as in vivo. The text has this:
Mutations in the NPC1 gene affect two independent lysosomal functions. The first is the generation of lysosomal tubules as a mechanism to deliver intracellular cholesterol to other membrane-bound compartments. Because this function is impaired in NPC disease, we investigated the protein components necessary for tubule projection. We identified 27-HC as a signaling molecule that stimulates lysosomal tubulation and is not provided properly to lysosomal membrane to elicit tubulation in NPC disease. To correct this defect, we provide pure 27-HC in a cocktail that bypasses endocytosis. […] We have also tested this therapy in two different transgenic strains of mice with NPC1 mutations. […] Because we know the molecular target for 27-HC (StARD9), we tested 27-HC treatment in mice where we removed the StARD9 gene. […] This confirms the molecular target for 27-HC treatment and is consistent with our proposed model for the defects in NPC disease. Independent of the role for NPC1 in lysosomal tubulation, NPC1 is the “receptor” for the pro-apoptotic protein STING. STING is a signaling molecule that is activated by cell insults, including defective cholesterol transport. Once STING is activated, it triggers programmed cell death pathways. Counteracting STING activation, STING is silenced by binding to lysosomes, which leads to STING degradation and inactivation of this pathway. This silencing is required to prevent STING activation to proceed long-term. We recently discovered that the “receptor” on lysosomes that drives STING silencing is also NPC1. In cells mutant for NPC1, STING silencing is impaired, thereby leading to programmed cell death. As a result, NPC1 mutations cause cell death in two different ways. They cause loss of lysosomal tubulation, and they cause perpetual activation of STING.
We further propose that NPC1 is required for two functions in cells. The first is cholesterol transport from the lysosome to ER. If this activity is impaired, cells are “starved” of cholesterol in the ER. This has consequences for cholesterol metabolism and activates STING. Second, NPC1 in the lysosome is the receptor for STING that is required for STING silencing. In the absence of NPC1, STING remains active after initial activation (Priming) but also amplifies the responses including apoptosis. The dual roles of NPC1 are consistent with results across the NPC field. First, this explains why our StARD9 (−/−) mice are less severe than NPC1 (−/−) mice. NPC1(−/−) mice cause STING activation and impair STING silencing. […] Second, NPC1 (−/−) mice are more severe than NPC1 (I1061 T/I1061 T) mice because the NPC1 […] mice must reduce STING activation and retain some STING silencing compared to nulls.

Series [3] deals with StARD9 mutant (null or truncation mutant) cells. The series can be described thus: Rescue of lysosomal tubulation by 27-HC in StARD9 mutant cells (FIG. 5). In kind it is cell-based. The settings on record: 27-HC in a cocktail that bypasses receptor-mediated endocytosis.
From the text: FIG. 5. Impact of NPC1 and StARD9 Mutations on Rescue of Lysosomal Tubulation by 27-Hydroxycholesterol (27-HC). The ability of 27-HC to rescue lysosomal tubulation after depletion of NPC1 (shRNA-NPC1) or StARD9 (shRNA-STARD9) was compared to cells expressing the NPC1 (I1061T)-eGFP mutant (I1061T) or a eGFP-StARD9 construct expressing amino acids 1-4483 (STARD9-ΔSTART). ***—p<0.005; ns (not significant).
as §1

Setting [4] is: NPC1 (I1061T/I1061T) mice, oral gavage, vs vehicle alone.
Where [5] appears, read: two transgenic strains with NPC1 mutations.

SMILES strings stand for the structures. “Also recorded” adds a separate entry of the source.

For the compound `C[C@@H](CO)CCC[C@@H](C)[C@H]1CC[C@H]2[C@@H]3CC=C4C[C@@H](O)CC[C@]4(C)[C@H]3CC[C@]12C` [27-HC, 27-hydroxycholesterol], the “Lifespan (Kaplan-Meier)” value in series [1] (NPC1 (I1061T/I1061T) mice, 5 mg/kg vs 0 mg/kg three times per week oral gavage, p=0.0108) is listed as “extended the lifespan of the mice; also recorded: Extension of lifespan was significant”. Besides, the “Lipid accumulation in livers” value in series [1] (NPC1 (I1061T/I1061T) mice, males and females) is listed as “successful in reducing these lipid accumulations”. Also, in series [1] (NPC1 (I1061T/I1061T) mice, oral gavage), the “Sex difference of treatment benefit” value is reported as “worked better in males than females”. Moreover, in series [1] (setting [4]), the Onset of symptoms entry is reported as “delayed the onset of symptoms” and the Severity of symptoms result is recorded as “reduced the severity of symptoms”. Moreover, the “Dosage needed for reduction of liver lipid accumulations, females” value in series [1] (female NPC1 (I1061T/I1061T) mice) was 40 mg/kg. Also, the “Sufficiency of the highest dose used, livers” value in series [1] (females compared to males) is “not sufficient in females compared to males”. In addition, the “Dosage needed for reduction of liver lipid accumulations, males” value in series [1] (male NPC1 (I1061T/I1061T) mice) is listed as 10 mg/kg. Moreover, in series [2], the “How long 27-HC remains in the blood” value was 12 h and the “Time 27-HC levels are retained” value is 1 to 2 days. Also, the “27-HC level in the blood” value in series [2] (12 hours) was -100 ng/mL. Moreover, the “Overall improvement for NPC1 mutant mice” value in the series with NPC mutant mice (mouse, in vivo) is “statistically-significant improvement”. In the series with NPC mutant mice (setting [5]), the “Lifespan of mutant mice” value is given as “extends the lifespan of mutant mice significantly”; the “Lysosomal tubulation in NPC mutant mice” value is “rescues lysosomal tubulation”; the “Onset, severity and progression of NPC disease” value is “delays the onset, severity and progression of NPC disease”. Also, the “Rescue of lysosomal tubulation in StARD9 mutant cells” value in series [3] is “not StARD9 mutant cells”.

The record behind these values is US20250114377A1, “TWO-PRONGED TREATMENT FOR NIEMANN PICK TYPE C DISEASE” (UNIVERSITY OF NOTRE DAME DU LAC, priority 2022, published 2025).
